This is an account of results in patent US12252457B2, “Compositions and methods for reducing tactile dysfunction, anxiety, and social impairment” (President and Fellows of Harvard College, priority 2018, dated 2025).

The assay relates to low-threshold mechanoreceptor neurons (LTMRs). Briefly: In vivo multiunit electrode recordings in the L4 DRG. The arrangement: species or system mouse. The source says:
FIGS. 20A-20O show isoguvacine attenuates tactile sensitivity through reduced excitability of peripheral, low-threshold mechanosensory neurons. FIG. 20A: Diagram for in vivo dorsal root ganglion (DRG) multi-unit electrode recordings, showing tetrode placement into the left L4 ganglia. FIG. 20B: Activity traces of two putative neurons (units) in response to a brush stimulus. FIG. 20C: Activity traces of two putative neurons (units) in response to a light air puff stimulus (1 PSI). FIGS. 20D-20G: Example unit identified during the spike sorting process. Average waveform at each electrode site (FIG. 20D, FIG. 20E), and inter-spike interval (FIG. 20F, FIG. 20G). FIG. 20H: Representative activity raster plots for multiple putative LTMRs in multiple mice over the duration of a recording experiment in controls and Advillin^Cre; Gabrb3^f/f mice. Mice received a subcutaneous injection of either saline or isoguvacine (2 mg/kg) during the experiment, and activity of light-touch responsive units in response to a light brush stimulus was assessed over a 90-minute period. FIG. 20I: Average firing frequency of LTMRs over the duration of each recording experiment, following subcutaneous injection of either saline or isoguvacine (2 mg/kg). Repeated measures, two-way ANOVA with post-hoc Dunnett's test, *p<0.05. FIG. 20J: Representative activity raster plots for putative LTMRs in multiple mice over the duration of recordings in controls and Shank3B^+/− mice. Mice received a subcutaneous injection of either saline or isoguvacine (2 mg/kg) during the experiment, and activity of light-touch responsive units was assessed over a 90-minute period. FIG. 20K: Average baseline spike rate of LTMRs in response to brush or air puff stimulus, in control and Shank3B^+/− mice. Student's t-test, *p<0.05. FIG. 20L: Average firing frequency of LTMRs over the duration of each recording experiment, following subcutaneous injection of either saline or isoguvacine (2 mg/kg). Repeated measures, two-way ANOVA with post-hoc Dunnett's test, *p<0.05. […] Two-way ANOVA with post-hoc Sidak's test, *, p<0.05. FIG. 20N: Response to a light air puff stimulus alone in mice following i.p. administration of either saline or 2 mg/kg isoguvacine treatment. Responses are expressed as percent of startle response to a 125 dB noise. Two-way ANOVA with post-hoc Sidak's test, *, p<0.05. FIG. 20O: Magnitude of startle response to a 125 dB noise in mice following i.p. administration of either saline or 2 mg/kg isoguvacine treatment. Responses are expressed as percent of startle response to a 125 dB noise. Two-way ANOVA with post-hoc Sidak's test, *, p<0.05.
To test the hypothesis that isoguvacine exerts its effects by acting directly on primary somatosensory neurons, electrophysiological recordings were performed both in vitro and in vivo. DRG cultures from Mecp2 and Shank3 mutant and control littermates were first produced to assess excitability of these neurons in vitro using whole cell patch-clamp recordings. […] It was next asked whether administration of isoguvacine would reduce mechanosensory neuron sensitivity in vivo by performing multiunit electrode recordings in the L4 DRG of urethane- and isoflurane-anesthetized mice (FIG. 20A). […] Once LTMR units were identified, animals were administered a subcutaneous injection of either saline vehicle or isoguvacine (2 mg/kg) and then sensitivity and firing frequency in response to tactile stimuli were monitored over a 90-minute period for each identified unit. […]

With `O=C(O)C1=CCNCC1` [Isoguvacine, isoguvacine], for the setting “2 mg/kg subcutaneous”, the “proprioceptor sensitivity and firing” value was “unaffected”; the “response thresholds to light touch stimuli and spiking of glabrous- and hairy-skin innervating Aβ LTMRs” value was “increased response thresholds to light touch stimuli and reduced spiking”. The “tactile stimulus-evoked LTMR sensitivity” value (Advillin^Cre, Gabrb3^f/f mice, 2 mg/kg subcutaneous) is reported as “no changes in tactile stimulus-evoked LTMR sensitivity”. The LTMR firing result (Shank3B and control littermates, 2 mg/kg subcutaneous) is on record as “attenuated firing”. The “tactile stimulus-evoked (brush or air puff) responsivity of LTMRs” value (control mice, sixty minutes after 2 mg/kg subcutaneous) was “significantly decreased”.
